Experimental data as given in patent US20110008264A1, “METHOD FOR REPELLING A RODENT, METHOD FOR CAPTURING A RODENT AND RODENT REPELLENT” (Earth Chemical Co., Ltd., priority 2006, published 2011).

Assays:
[1] = test system: mouse (ddY male mouse); test: Inhibition zone formation around impregnated filter paper in rearing cage (Test Example 6); assay type: in vivo; settings: 50 μl on filter paper, 16 mice; for Formation rate of inhibition zone: time until inhibition zone is formed
Procedure: A total of 16 animals of a mouse (ddY male mouse of 7 weeks of age) were released in a rearing cage (16 cm in breadth, 23 cm in length and 20 cm in height). Thereafter, a piece of filter paper (1 cm in width and 10 cm in length) impregnated with 50 μl of essential oil shown in the following Table 4 or 50 μl of water was hung down from the center of the ceiling of the rearing cage, and a period of time until a state in which mice gathered in the periphery in the rearing cage but mice are not present around the filter paper (inhibition zone) is formed was measured.

[2] = test system: rodent (mouse); assay type: in vivo; settings: Test Example 1, text; azodicarbonamide at 0.2 g, nitrocellulose at 23 g

SMILES	Presence of inhibition zone [1]	Formation rate of inhibition zone [1]	Repelled rodents in comparison with the control [2]
Cc1ccc(C(C)C)cc1 [p-Cymene]	present	50 s	
NC(=O)N=NC(N)=O [azodicarbonamide]			a distinct difference was observed in comparison with the control
CC1=CCC(C(C)C)=CC1 [γ-Terpinene]	present	23 s	
CCCCCCOC(C)=O [Hexyl acetate]	present	24 s	
